This series is classed as in vitro ADME, hairless mice (MF1 hr/hr Ola/Hsd). The conditions noted are these: MF1 hr/hr Ola/Hsd (hairless), mouse, 24 h. From the text:
The percutaneous resorption of azelaic acid was examined from hydrogel formulations according to the invention in comparison to Skinoren^(R) cream. The purpose of the study was to describe the bioavailability of azelaic acid in the skin, the penetration of azelaic acid through the skin and the dermal metabolism of azelaic acid. In this respect, various preparations that contain ^14C-labeled azelaic acid were applied in the in vitro model of the FRANZ diffusion chamber on the intact complete skin of hairless mice (MF1 hr/hr Ola/Hsd; supplier: Winkelmann, Germany). An amount of 10 to 15 mg of the following compositions was applied to a skin area of 2 cm^2:
The time behavior of the ^14C-azelaic acid was measured in the acceptor medium (Hepes Hanks Balanced Salt Solution: HHBSS), which flows along under the skin, at two-hour intervals over a period of 24 hours. In addition, at the end of each experiment, the radioactivity on the skin surface, in the stratum corneum and in the remaining skin was determined. […]
The ^14C-azelaic acid found in the skin at the end of the experiment was metabolized only to a proportion of 3 to 11%. Therefore, the data on the radioactivity in the skin can virtually be equated to the concentration of unchanged azelaic acid.

`O=C(O)CCCCCCCC(=O)O` [^14C-azelaic acid, azelaic acid]: the “proportion of 14C-azelaic acid found in the skin that was metabolized” value is 3 to 11%.

Values taken from patent US6534070B1, “Composition with azelaic acid” (Schering Aktiengesellschaft, priority 1997, dated 2003).
